From patent US12398097B2, “WDR5-MYC inhibitors” (Vanderbilt University, priority 2019, dated 2025)

biological target: WDR5 (Homo sapiens, UniProt P61964); test: Competition-based fluorescence polarization anisotropy assay; conditions: binding to WDR5; displacement of FITC-labeled small molecule probe (analogous to Example J2 or HCH-25) or peptide probe FITC-AHx-SEEEIDVVSV; pH 6.0; Ki converted from IC50
Method in brief: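 Competition fluorescence polarization anisotropy binding to WDR5 using a FITC-labeled peptide probe or a fluorescently labeled small-molecule probe. Buffer: 200 mM phosphate, 300 mM NaCl, 0.5 mM TCEP, 0.1% Chaps, pH 6.0. Displacement data were converted to Ki.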

| Compound | Ki [nM] |
| --- | --- |
| O=C(NC1COC1)c1cc(C2CC2)cc(NS(=O)(=O)c2cc(Br)cc(Cl)c2O)c1F [Example J159, 3-((5-Bromo-3-chloro-2-hydroxyphenyl)sulfonamido)-5-cyclopropyl-2-fluoro-N-(oxetan-3-yl)benzamide] | 610 |
| O=C(NCCCO)c1cc(Cl)cc(NS(=O)(=O)c2cc(Br)ccc2O)c1O [Example J17, 3-((5-Bromo-2-hydroxyphenyl)sulfonamido)-5-chloro-2-hydroxy-N-(3-hydroxypropyl)benzamide] | 2690 |
| O=C(O)c1cc(Cl)cc(NS(=O)(=O)c2cc(Br)cc3cccnc23)c1O [Example J13, 3-((6-Bromoquinoline)-8-sulfonamido)-5-chloro-2-hydroxybenzoic acid] | 780 |
| O=S(=O)(Nc1cc(Cl)cc(S(=O)(=O)NCC2CCCO2)c1O)c1cc(Br)ccc1O (stereo not drawn) [Example S32-2, 5-Bromo-N-(5-chloro-2-hydroxy-3-(N-((tetrahydrofuran-2-yl)methyl)sulfamoyl)phenyl)-2-hydroxybenzenesulfonamide] | 530 |
| O=C(NC1COC1)c1cc(C2CC2)cc(NS(=O)(=O)c2cc(Br)ccc2O)c1F [Example J144, 3-((5-Bromo-2-hydroxyphenyl)sulfonamido)-5-cyclopropyl-2-fluoro-N-(oxetan-3-yl)benzamide] | 6760 |
| COC[C@H]1CCCN1C(=O)c1cc(OC(F)(F)F)cc(NS(=O)(=O)c2cc(Br)ccc2O)c1O [Example J172, (R)-5-Bromo-2-hydroxy-N-(2-hydroxy-3-(2-(methoxymethyl)pyrrolidine-1-carbonyl)-5-(trifluoromethoxy)phenyl)benzenesulfonamide] | 680 |
| COc1ccc(Br)cc1S(=O)(=O)Nc1cc(Cl)cc(C(=O)N2CC(OC)C2)c1O [Example J62, 5-Bromo-N-(5-chloro-2-hydroxy-3-(3-methoxyazetidine-1-carbonyl)phenyl)-2-methoxybenzenesulfonamide] | 9360 |
| COC1CCN(C(=O)c2cc(C3(C#N)CCC3)cc(NS(=O)(=O)c3cc(Br)ccc3O)c2O)C1 (stereo not drawn) [Example J221, 5-Bromo-N-(5-(1-cyanocyclobutyl)-2-hydroxy-3-(3-methoxypyrrolidine-1-carbonyl)phenyl)-2-hydroxybenzenesulfonamide] | 27800 |
| Cc1c(-c2ccccc2)cc(NS(=O)(=O)c2cc(Br)ccc2O)c(O)c1C(=O)O [Example J184, 5-((5-Bromo-2-hydroxyphenyl)sulfonamido)-4-hydroxy-2-methyl-[1,1′-biphenyl]-3-carboxylic acid] | 1620 |
| COc1ccc(Br)cc1S(=O)(=O)Nc1cc(Cl)cc(C(=O)N2CC(O)C2)c1O [Example J63, 5-Bromo-N-(5-chloro-2-hydroxy-3-(3-hydroxyazetidine-1-carbonyl)phenyl)-2-methoxybenzenesulfonamide] | 5510 |
| O=S(=O)(Nc1cc(C2CC2)ccc1O)c1cc(Br)ccc1O [JDM-10-108A, 5-Bromo-N-(5-cyclopropyl-2-hydroxyphenyl)-2-hydroxybenzenesulfonamide] | 820 |
| COC1CCN(C(=O)c2cc(OC(F)(F)F)cc(NS(=O)(=O)c3cc(Br)ccc3O)c2O)C1 (stereo not drawn) [Example J174, 5-Bromo-2-hydroxy-N-(2-hydroxy-3-(3-methoxypyrrolidine-1-carbonyl)-5-(trifluoromethoxy)phenyl)benzenesulfonamide] | 4690 |
| N#CC1(c2ccc(O)c(NS(=O)(=O)c3cc(Br)ccc3O)c2)CCCCC1 [JDM-06-030C, 5-Bromo-N-(5-(1-cyanocyclohexyl)-2-hydroxyphenyl)-2-hydroxybenzenesulfonamide] | 230 |
| O=C(O)c1cc(Cl)cc(NS(=O)(=O)c2cc(Cl)c(Cl)cc2O)c1O [Example J11, 5-Chloro-3-((4,5-dichloro-2-hydroxyphenyl)sulfonamido)-2-hydroxybenzoic acid] | 2490 |
| O=C(NCC1CCCO1)c1cc(OC(F)(F)F)cc(NS(=O)(=O)c2cc(Cl)ccc2O)c1O (stereo not drawn) [Example J178, 3-((5-Chloro-2-hydroxyphenyl)sulfonamido)-2-hydroxy-N-((tetrahydrofuran-2-yl)methyl)-5-(trifluoromethoxy)benzamide] | 700 |
| O=C(NCc1ccccn1)c1cc(Cl)cc(NS(=O)(=O)c2cc(Br)ccc2O)c1O [Example J31, 3-((5-Bromo-2-hydroxyphenyl)sulfonamido)-5-chloro-2-hydroxy-N-(pyridin-2-ylmethyl)benzamide] | 790 |
| O=C(NC1CCOC1)c1c(O)c(NS(=O)(=O)c2cc(Br)ccc2O)cc(C2CC2)c1F (stereo not drawn) [Example J131, 3-((5-Bromo-2-hydroxyphenyl)sulfonamido)-5-cyclopropyl-6-fluoro-2-hydroxy-N-(tetrahydrofuran-3-yl)benzamide] | 2990 |
| O=C(c1cc(C2CC2)cc(NS(=O)(=O)c2cc(Br)ccc2O)c1O)N1CCOCC1 [Example J85, 5-Bromo-N-(5-cyclopropyl-2-hydroxy-3-(morpholine-4-carbonyl)phenyl)-2-hydroxybenzenesulfonamide] | 1440 |
| CC(C)[S+]([O-])c1cc(Cl)cc(NS(=O)(=O)c2cc(Br)ccc2O)c1O (stereo not drawn) [Example S23.3, 5-Bromo-N-(5-chloro-2-hydroxy-3-(isopropylsulfinyl)phenyl)-2-hydroxybenzenesulfonamide] | 360 |
| COc1ccc(Br)cc1S(=O)(=O)Nc1cc(Cl)cc(C(=O)NCCO)c1O [Example J59, 3-((5-Bromo-2-methoxyphenyl)sulfonamido)-5-chloro-2-hydroxy-N-(2-hydroxyethyl)benzamide] | 1170 |
| COCCNC(=O)c1cc(C2CC2)cc(NS(=O)(=O)c2cc(Br)cc(F)c2O)c1O [Example J99, 3-((5-Bromo-3-fluoro-2-hydroxyphenyl)sulfonamido)-5-cyclopropyl-2-hydroxy-N-(2-methoxyethyl)benzamide] | 3720 |
| COc1cc(F)c(Br)cc1S(=O)(=O)Nc1cc(C2CC2)cc(C(=O)O)c1O [Example J72, 3-((5-Bromo-4-fluoro-2-methoxyphenyl)sulfonamido)-5-cyclopropyl-2-hydroxybenzoic acid] | 1110 |
| O=C(NCCN1CCOCC1)c1c(O)c(NS(=O)(=O)c2cc(Br)ccc2O)cc(C2CC2)c1F [Example J125, 3-((5-Bromo-2-hydroxyphenyl)sulfonamido)-5-cyclopropyl-6-fluoro-2-hydroxy-N-(2-morpholinoethyl)benzamide] | 1320 |
| O=C(O)c1c(O)c(NS(=O)(=O)c2cc(Br)ccc2O)cc(C2CC2)c1F [Example J117, 3-((5-Bromo-2-hydroxyphenyl)sulfonamido)-5-cyclopropyl-6-fluoro-2-hydroxybenzoic acid] | 30 |

Second part, the compound after the results:

| Ki [nM] | Compound |
| --- | --- |
| 90 | CCc1cc(NS(=O)(=O)c2cc(Br)cc(Cl)c2O)c(O)c(C(=O)O)c1 [HCH-22, 3-((5-Bromo-3-chloro-2-hydroxyphenyl)sulfonamido)-5-ethyl-2-hydroxybenzoic acid] |
| 870 | COc1c(Cl)cc(Br)cc1S(=O)(=O)Nc1cc(C2(C#N)CCC2)cc(C(=O)O)c1O [SN-4, 3-((5-bromo-3-chloro-2-methoxyphenyl)sulfonamido)-5-(1-cyanocyclobutyl)-2-hydroxybenzoic acid] |
| 330 | NC(=O)c1cc(OC(F)(F)F)cc(NS(=O)(=O)c2cc(Br)cc(Cl)c2O)c1O [HCH-62, 3-((5-Bromo-3-chloro-2-hydroxyphenyl)sulfonamido)-2-hydroxy-5-(trifluoromethoxy)benzamide] |
| 350 | O=C(NC1CC(F)(F)C1)c1cc(OC(F)(F)F)cc(NS(=O)(=O)c2cc(Br)ccc2O)c1O [HCH-55, 3-((5-Bromo-2-hydroxyphenyl)sulfonamido)-N-(3,3-difluorocyclobutyl)-2-hydroxy-5-(trifluoromethoxy)benzamide] |
| 70 | CS(=O)(=O)c1cc(NS(=O)(=O)c2cc(Br)cc(Cl)c2O)cc(OC(F)(F)F)c1 [Example S12, 5-Bromo-3-chloro-2-hydroxy-N-(3-(methylsulfonyl)-5-(trifluoromethoxy)phenyl)benzenesulfonamide] |
| 230 | CCC(O)CNC(=O)c1cc(OC(F)(F)F)cc(NS(=O)(=O)c2cc(Br)cc(Cl)c2O)c1O (stereo not drawn) [HCH-41, 3-((5-Bromo-3-chloro-2-hydroxyphenyl)sulfonamido)-2-hydroxy-N-(2-hydroxybutyl)-5-(trifluoromethoxy)benzamide] |
| 250 | O=C(NCCO)c1cc(OC(F)(F)F)cc(NS(=O)(=O)c2cc(Br)ccc2O)c1O [HCH-26, 3-((5-Bromo-2-hydroxyphenyl)sulfonamido)-2-hydroxy-N-(2-hydroxyethyl)-5-(trifluoromethoxy)benzamide] |
| 140 | CC(C)C(O)CNC(=O)c1cc(OC(F)(F)F)cc(NS(=O)(=O)c2cc(Br)cc(Cl)c2O)c1O (stereo not drawn) [HCH-52, 3-((5-Bromo-3-chloro-2-hydroxyphenyl)sulfonamido)-2-hydroxy-N-(2-hydroxy-3-methylbutyl)-5-(trifluoromethoxy)benzamide] |
| 30 | CS(=O)(=O)c1cc(NS(=O)(=O)c2cc(Br)cc(Cl)c2O)cc(S(F)(F)(F)(F)F)c1 [Example S14, 5-Bromo-3-chloro-2-hydroxy-N-(3-(methylsulfonyl)-5-(pentafluoro-λ^6-sulfaneyl)phenyl)benzenesulfonamide] |
| 200 | CCc1cc(NS(=O)(=O)c2cc(Br)cc(CC)c2O)c(O)c(C(=O)O)c1 [HCH-12, 3-((5-bromo-3-ethyl-2-hydroxyphenyl)sulfonamido)-5-ethyl-2-hydroxybenzoic acid] |
| 440 | CCC(C)(O)CNC(=O)c1cc(OC(F)(F)F)cc(NS(=O)(=O)c2cc(Br)ccc2O)c1O (stereo not drawn) [HCH-45, 3-((5-Bromo-2-hydroxyphenyl)sulfonamido)-2-hydroxy-N-(2-hydroxy-2-methylbutyl)-5-(trifluoromethoxy)benzamide] |
| 420 | CS(=O)(=O)c1cc(NS(=O)(=O)c2cc(Br)ccc2O)cc(S(F)(F)(F)(F)F)c1 [Example S13, 5-Bromo-2-hydroxy-N-(3-(methylsulfonyl)-5-(pentafluoro-λ^6-sulfaneyl)phenyl)benzenesulfonamide] |
